Calls of active or inactive are those of the source. The rule behind the calls is not given here.
What was measured:
[1] = biological target: T1, Mushroom tyrosinase (Agaricus bisporus, UniProt O42713+Q00024+C7FF04+C7FF05)
Description: Inhibition of mushroom tyrosinase using L-DOPA as substrate

[2] = biological target: T1, Mushroom tyrosinase; remark: listed apart in the source
Description: Inhibition of mushroom tyrosinase using L-tyrosine as substrate

[3] = biological target: T1, Mushroom tyrosinase; assay: Non-competitive inhibition of mushroom tyrosinase using L-tyrosine as substrate by Lineweaver-Burk blot analysis
[4] = biological target: T2, Mushroom tyrosinase (Agaricus bisporus) (UniProt O42713+Q00024+C7FF04+C7FF05); assay: […] inhibition of mushroom tyrosinase using L-tyrosine as substrate by Lineweaver-Burk blot analysis
[5] = biological target: T2, Mushroom tyrosinase (Agaricus bisporus); assay: Reversible inhibition of mushroom tyrosinase using L-DOPA as substrate by Lineweaver-Burk plot analysis
[6] = biological target: T1, Mushroom tyrosinase; assay: Non-competitive inhibition of mushroom tyrosinase using L-DOPA as substrate by Lineweaver-Burk blot analysis
[7] = biological target: T2, Mushroom tyrosinase (Agaricus bisporus); assay: Reversible inhibition of mushroom tyrosinase using L-tyrosine as substrate by Lineweaver-Burk plot analysis

Structure (SMILES)	IC50 [1] [µM]	IC50 [2] [µM]	other results
C#CCCCOC1O[C@H](COCc2ccccc2)[C@@H](OCc2ccccc2)[C@H](OCc2ccccc2)[C@H]1OCc1ccccc1 (some centres undefined)	> 500	105	
C#CCO[C@H]1O[C@@H]2CO[C@@H](c3ccccc3)O[C@H]2[C@H](OCc2ccccc2)[C@H]1OCc1ccccc1	431	> 500	
CC#CCOC[C@H]1OC(OC)[C@H](OCc2ccccc2)[C@@H](OCc2ccccc2)[C@@H]1OCc1ccccc1 (some centres undefined)	> 500	274	
CC#CCOC1O[C@H](COCc2ccccc2)[C@@H](OCc2ccccc2)[C@H](OCc2ccccc2)[C@H]1OCc1ccccc1 (some centres undefined)	70.7	54	Ki [3]: 21 µM; inhibition [4]: Active
C#CCO[C@H]1O[C@H](COCc2ccccc2)[C@@H](OCc2ccccc2)[C@H](OCc2ccccc2)[C@H]1OCc1ccccc1	> 500	> 500	
CC#CCOC[C@H]1OC(OCc2ccccc2)[C@H](OCc2ccccc2)[C@@H](OCc2ccccc2)[C@@H]1OCc1ccccc1 (some centres undefined)	> 500	> 500	
CC#CCO[C@@H]1O[C@@H]2CO[C@@H](c3ccccc3)O[C@H]2[C@H](OCc2ccccc2)[C@H]1OCc1ccccc1	> 500	> 500	
OC[C@H]1OC(OCc2ccccc2)[C@H](OCc2ccccc2)[C@@H](OCc2ccccc2)[C@@H]1OCc1ccccc1 (some centres undefined)	> 500	> 500	
C#CCCOC1O[C@H](COC(C)=O)[C@@H](OCc2ccccc2)[C@H](OCc2ccccc2)[C@H]1OCc1ccccc1 (some centres undefined)	> 500	268	
C#CCOC[C@H]1OC(OCc2ccccc2)[C@H](OCc2ccccc2)[C@@H](OCc2ccccc2)[C@@H]1OCc1ccccc1 (some centres undefined)	> 500	205	
CC#CCOC1O[C@H](CO)[C@@H](OCc2ccccc2)[C@H](OCc2ccccc2)[C@H]1OCc1ccccc1 (some centres undefined)	80.4	> 500	
C#CCCOC1O[C@@H]2CO[C@@H](c3ccccc3)O[C@H]2[C@H](OCc2ccccc2)[C@H]1OCc1ccccc1 (some centres undefined)	257	> 500	
COC[C@H]1O[C@H](OC)[C@H](OCc2ccccc2)[C@@H](OCc2ccccc2)[C@@H]1OCc1ccccc1	494	> 500	
C#CCO[C@@H]1O[C@H](COCc2ccccc2)[C@@H](OCc2ccccc2)[C@H](OCc2ccccc2)[C@H]1OCc1ccccc1	> 500	94.7	
C#CCCOC1O[C@H](COC)[C@@H](OCc2ccccc2)[C@H](OCc2ccccc2)[C@H]1OCc1ccccc1 (some centres undefined)	> 500	> 500	
C#CCCOC1O[C@@H]2CO[C@@H](c3ccccc3)O[C@H]2[C@H](O)[C@H]1O (some centres undefined)	207	463	

Structure (SMILES)	IC50 [1] [µM]	IC50 [2] [µM]	other results
CC#CCO[C@@H]1O[C@H](COCc2ccccc2)[C@@H](OCc2ccccc2)[C@H](OCc2ccccc2)[C@H]1OCc1ccccc1	> 500	179	
C#CCOC1O[C@H](COC(C)=O)[C@@H](OCc2ccccc2)[C@H](OCc2ccccc2)[C@H]1OCc1ccccc1 (some centres undefined)	> 500	461	
CO[C@H]1O[C@H](CO)[C@@H](OCc2ccccc2)[C@H](OCc2ccccc2)[C@H]1OCc1ccccc1	> 500	> 500	
C#CCOC1O[C@H](COCC#CC)[C@@H](OCc2ccccc2)[C@H](OCc2ccccc2)[C@H]1OCc1ccccc1 (some centres undefined)	> 500	> 500	
CC#CCOC1O[C@@H]2CO[C@@H](c3ccccc3)O[C@H]2[C@H](O)[C@H]1O (some centres undefined)	> 500	> 500	
C#CCO[C@@H]1O[C@@H]2CO[C@@H](c3ccccc3)O[C@H]2[C@H](OCc2ccccc2)[C@H]1OCc1ccccc1	> 500	> 500	
C#CCCO[C@@H]1O[C@@H]2CO[C@@H](c3ccccc3)O[C@H]2[C@H](OCc2ccccc2)[C@H]1OCc1ccccc1	> 500	> 500	
CO[C@H]1O[C@H](COCc2ccccc2)[C@@H](OCc2ccccc2)[C@H](OCc2ccccc2)[C@H]1OCc1ccccc1	> 500	191	
C#CCOC1O[C@@H]2CO[C@@H](c3ccccc3)O[C@H]2[C@H](OCc2ccccc2)[C@H]1OCc1ccccc1 (some centres undefined)	383	> 500	
CC(=O)OC[C@H]1OC(OCc2ccccc2)[C@H](OCc2ccccc2)[C@@H](OCc2ccccc2)[C@@H]1OCc1ccccc1 (some centres undefined)	357	273	
C#CCOC1O[C@@H]2CO[C@@H](c3ccccc3)O[C@H]2[C@H](O)[C@H]1O (some centres undefined)	> 500	> 500	
C#CCCO[C@H]1O[C@@H]2CO[C@@H](c3ccccc3)O[C@H]2[C@H](OCc2ccccc2)[C@H]1OCc1ccccc1	> 500	> 500	
C#CCOC[C@H]1O[C@H](OC)[C@H](OCc2ccccc2)[C@@H](OCc2ccccc2)[C@@H]1OCc1ccccc1	> 500	> 500	
CO[C@H]1O[C@H](COC(C)=O)[C@@H](OCc2ccccc2)[C@H](OCc2ccccc2)[C@H]1OCc1ccccc1	> 500	> 500	
COC[C@H]1OC(OCc2ccccc2)[C@H](OCc2ccccc2)[C@@H](OCc2ccccc2)[C@@H]1OCc1ccccc1 (some centres undefined)	435	> 500	
CC#CCO[C@H]1O[C@H](COCc2ccccc2)[C@@H](OCc2ccccc2)[C@H](OCc2ccccc2)[C@H]1OCc1ccccc1	> 500	321	

More lines, main results first:

IC50 [1] [µM]	IC50 [2] [µM]	Structure (SMILES)	other results
> 500	> 500	C#CCCCOC1O[C@H](COC)[C@@H](OCc2ccccc2)[C@H](OCc2ccccc2)[C@H]1OCc1ccccc1 (some centres undefined)	
> 500	> 500	CC#CCOC1O[C@@H]2CO[C@@H](c3ccccc3)O[C@H]2[C@H](OCc2ccccc2)[C@H]1OCc1ccccc1 (some centres undefined)	
> 500	> 500	C#CCCOC1O[C@H](CO)[C@@H](OCc2ccccc2)[C@H](OCc2ccccc2)[C@H]1OCc1ccccc1 (some centres undefined)	
34.3	150	C#CCCOC1O[C@H](COCc2ccccc2)[C@@H](OCc2ccccc2)[C@H](OCc2ccccc2)[C@H]1OCc1ccccc1 (some centres undefined)	inhibition [5]: Active; Ki [6]: 49 µM
> 500	72	CC#CCOC[C@H]1OC(OCC#CC)[C@H](OCc2ccccc2)[C@@H](OCc2ccccc2)[C@@H]1OCc1ccccc1 (some centres undefined)	Ki [3]: 32 µM; inhibition [7]: Active
> 500	> 500	c1ccc(COC[C@H]2OC(OCc3ccccc3)[C@H](OCc3ccccc3)[C@@H](OCc3ccccc3)[C@@H]2OCc2ccccc2)cc1 (some centres undefined)	
> 500	> 500	CC#CCO[C@H]1O[C@@H]2CO[C@@H](c3ccccc3)O[C@H]2[C@H](OCc2ccccc2)[C@H]1OCc1ccccc1	
> 500	81.9	C#CCOC1O[C@H](COCc2ccccc2)[C@@H](OCc2ccccc2)[C@H](OCc2ccccc2)[C@H]1OCc1ccccc1 (some centres undefined)	
> 500	> 500	C#CCOC1O[C@H](CO)[C@@H](OCc2ccccc2)[C@H](OCc2ccccc2)[C@H]1OCc1ccccc1 (some centres undefined)	
> 500	> 500	C#CCCCOC1O[C@H](CO)[C@@H](OCc2ccccc2)[C@H](OCc2ccccc2)[C@H]1OCc1ccccc1 (some centres undefined)	
> 500	> 500	C#CCOC[C@H]1OC(OCC#C)[C@H](OCc2ccccc2)[C@@H](OCc2ccccc2)[C@@H]1OCc1ccccc1 (some centres undefined)	
45.4	73.6	CC#CCOC1O[C@H](COC)[C@@H](OCc2ccccc2)[C@H](OCc2ccccc2)[C@H]1OCc1ccccc1 (some centres undefined)	inhibition [5]: Active; Ki [6]: 52 µM
288	> 500	C#CCOC[C@H]1OC(OCC#CC)[C@H](OCc2ccccc2)[C@@H](OCc2ccccc2)[C@@H]1OCc1ccccc1 (some centres undefined)	
> 500	> 500	C#CCOC1O[C@H](COC)[C@@H](OCc2ccccc2)[C@H](OCc2ccccc2)[C@H]1OCc1ccccc1 (some centres undefined)	
400	219	CC#CCOC1O[C@H](COC(C)=O)[C@@H](OCc2ccccc2)[C@H](OCc2ccccc2)[C@H]1OCc1ccccc1 (some centres undefined)	
> 500	208	C#CCCCOC1O[C@H](COC(C)=O)[C@@H](OCc2ccccc2)[C@H](OCc2ccccc2)[C@H]1OCc1ccccc1 (some centres undefined)	
